Patent US20030232102A1, “Total glycosides of paeony, method to prepare the same and uses thereof” (priority 2001, published 2003)

Experiments:
[1] = test system: patients with rheumatoid arthritis; test: Phase II clinical study: laboratory tests and immune system perimeters; format: in vivo, human; set-up: ESR / CRP / RF / Ig A / Ig G / Laboratory blood tests: Hg / Laboratory blood tests: WBC / Laboratory blood tests: BP / Laboratory blood tests: Cr / Laboratory blood tests: BUN: unit not given here; details: for Laboratory blood tests: Hg / Laboratory blood tests: WBC / Laboratory blood tests: BP / Laboratory blood tests: BUN / Laboratory blood tests: Cr / Laboratory blood tests: GPT: overall group
Excerpt: (§1) It was a multiple-centered, randomized, parallel, positive controlled Phrase II clinical study.
10) Routine blood and urine exam: Hemoglobin, platelet count, biochemical serum test and routine urine test
11) Blood Sedimentation (Norm. M: 15 mm/hr F: 20 mm/hr)
12) Serum Rheumatoid Factor (Method: Latex Agglutination Test, LAT): The maximum titer value were required for positive reaction patients. All centers use the same standard agents in one product batch.
13) C-reactive protein (quantitative method): All centers use the same standard agents in one product batch.

[2] = test system: patients with rheumatoid arthritis; test: Phase II clinical study: adverse (reverse) drug effects and drug toleration; format: in vivo, human
Protocol: as §1
The eneral condition of patients was evaluated on each visit and follow-up survey. Patients were inquired of symptoms and signs into a 26-item list of side effect. Once a possible side effect occurred, the relevant information as time, severity, frequency, duration, method used in release and its result were recorded by the doctor. […] A second disease occurred during the study was not counted in as a side effect. Index of overall side-effect is as below:
2=upset of medium severity, interfere with the daily life of patient
3=sever unwell, obviously affect a normal daily life and may need a bed rest.
4=life threatening side effect
Investigators should score individually on drug toleration in each patient after the test base on the following criteria:
0=bear sever side effect(s) and need to halt the test
1=side effects(s) of medium severity, relevant treatments is adopted.
2=mild side effect(s), no treatment was needed

[3] = 4 weeks (row order of Table 65)
[4] = 8 weeks (row order of Table 65)
[5] = 12 weeks (row order of Table 65)
[6] = 24 weeks (row order of Table 65)
[7] = 4 weeks (row order of Table 67)
[8] = 8 weeks (row order of Table 67)
[9] = 12 weeks (row order of Table 67)
[10] = 24 weeks (row order of Table 67)
[11] = period of treatment 0 (row order of Table 67)
[12] = period of treatment 0 (row order of Table 65)
[13] = double-blind, 4 weeks, column 1
[14] = double-blind, 12 weeks, column 1
[15] = double-blind, 12 weeks, column 2
[16] = overall group, 4 weeks, column 1
[17] = overall group, 4 weeks, column 2
[18] = overall group, 4 weeks, column 3
[19] = overall group, 8 weeks, column 1
[20] = overall group, 8 weeks, column 2
[21] = overall group, 8 weeks, column 3
[22] = overall group, 12 weeks, column 1
[23] = overall group, 12 weeks, column 2
[24] = overall group, 24 weeks, column 1
[25] = overall group, 24 weeks, column 2

CN(Cc1cnc2nc(N)nc(N)c2n1)c1ccc(C(=O)N[C@@H](CCC(=O)O)C(=O)O)cc1 [MTX, Methotrexate]
CRP ([1]; 4 weeks): 27.97 ± 21.12
ESR ([1]; 4 weeks): 42.11 ± 38.68
Ig A [1, 3]: 3.64 ± 3.54
Ig G [1, 3]: 17.40 ± 6.59
RF [1, 3]: 1.87 ± 0.62
CRP ([1]; 8 weeks): 25.72 ± 19.42
ESR ([1]; 8 weeks): 44.92 ± 78.36
Ig A [1, 4]: 3.98 ± 3.56
Ig G [1, 4]: 17.62 ± 6.37
Ig M [1, 4]: 2.76 ± 2.24
RF [1, 4]: 1.59 ± 0.61
CRP ([1]; 12 weeks): 22.31 ± 18.91
ESR ([1]; 12 weeks): 29.96 ± 20.48
Ig A [1, 5]: 3.39 ± 3.15
Ig G [1, 5]: 16.47 ± 5.92
RF [1, 5]: 1.72 ± 0.56
CRP ([1]; 24 weeks): 27.12 ± 22.39
ESR ([1]; 24 weeks): 28.66 ± 20.96
Ig A [1, 6]: 2.35 ± 1.55
Ig G [1, 6]: 15.26 ± 6.37
Ig M [1, 6]: 1.57 ± 0.79
RF [1, 6]: 1.74 ± 0.63
Laboratory blood tests: Hg ([1]; 4 weeks): 10.96 ± 3.65
Laboratory blood tests: WBC ([1]; 4 weeks): 7.47 ± 2.09
Laboratory blood tests: BP [1, 7]: 94.28 ± 31.42
Laboratory blood tests: BUN [1, 7]: 3.32 ± 1.11
Laboratory blood tests: Cr [1, 7]: 82.82 ± 27.64
Laboratory blood tests: GPT [1, 7]: Norm.
Laboratory blood tests: Hg ([1]; 8 weeks): 9.26 ± 3.09
Laboratory blood tests: WBC ([1]; 8 weeks): 8.47 ± 2.82
Laboratory blood tests: BP [1, 8]: 108.73 ± 36.21
Laboratory blood tests: BUN [1, 8]: 1.97 ± 0.65
Laboratory blood tests: Cr [1, 8]: 98.89 ± 32.93
Laboratory blood tests: GPT [1, 8]: Norm.
Laboratory blood tests: Hg ([1]; 12 weeks): 9.24 ± 2.98
Laboratory blood tests: WBC ([1]; 12 weeks): 8.42 ± 2.57
Laboratory blood tests: BP [1, 9]: 110.66 ± 37.48
Laboratory blood tests: BUN [1, 9]: 1.82 ± 0.47
Laboratory blood tests: Cr [1, 9]: 102.03 ± 36.86
Laboratory blood tests: GPT [1, 9]: Norm.
Laboratory blood tests: Hg ([1]; 24 weeks): 10.78 ± 3.10
Laboratory blood tests: WBC ([1]; 24 weeks): 7.28 ± 2.67
Laboratory blood tests: BP [1, 10]: 168.48 ± 30.78
Laboratory blood tests: BUN [1, 10]: 3.38 ± 1.01
Laboratory blood tests: Cr [1, 10]: 78.66 ± 26.42
Laboratory blood tests: GPT [1, 10]: Norm.
Laboratory blood tests: Hg ([1]; period of treatment 0): 11.28 ± 3.72
Laboratory blood tests: WBC ([1]; period of treatment 0): 7.96 ± 2.61
Laboratory blood tests: BP [1, 11]: 98.97 ± 32.86
Laboratory blood tests: BUN [1, 11]: 3.96 ± 1.32
Laboratory blood tests: Cr [1, 11]: 74.86 ± 28.28
Laboratory blood tests: GPT [1, 11]: Norm.
CRP ([1]; period of treatment 0): 32.01 ± 22.75
ESR ([1]; period of treatment 0): 47.11 ± 26.19
Ig A [1, 12]: 3.62 ± 3.42
Ig G [1, 12]: 18.13 ± 7.12
RF [1, 12]: 1.93 ± 0.61
Events of reverse drug effects: Dizziness [2, 13]: 3
Events of reverse drug effects: Headache [2, 13]: 1
Events of reverse drug effects: Bad appetite [2, 14]: 2
Events of reverse drug effects: Dizziness [2, 14]: 1
Events of reverse drug effects: Frequency of micturition [2, 14]: 1
Events of reverse drug effects: Headache [2, 14]: 1
Events of reverse drug effects: Lethargy [2, 14]: 1
Events of reverse drug effects: Nausea [2, 14]: 4
Events of reverse drug effects: Bad appetite [2, 15]: 2
Events of reverse drug effects: Insomnia [2, 15]: 1
Events of reverse drug effects: Nausea [2, 15]: 4
Events of reverse drug effects: Abd distension [2, 16]: 7
Events of reverse drug effects: Bad appetite [2, 16]: 27
Events of reverse drug effects: Burning heart [2, 16]: 1
Events of reverse drug effects: Constipation [2, 16]: 3
Events of reverse drug effects: Diarrhea [2, 16]: 1
Events of reverse drug effects: Dizziness [2, 16]: 6
Events of reverse drug effects: Headache [2, 16]: 1
Events of reverse drug effects: Lethargy [2, 16]: 1
Events of reverse drug effects: Nausea [2, 16]: 14
Events of reverse drug effects: Palpitation [2, 16]: 3
Events of reverse drug effects: Stomachache [2, 16]: 1
Events of reverse drug effects: Stomatitis [2, 16]: 2
Events of reverse drug effects: Vomiting [2, 16]: 3
Events of reverse drug effects: Abd distension [2, 17]: 5
Events of reverse drug effects: Bad appetite [2, 17]: 3
Events of reverse drug effects: Diarrhea [2, 17]: 1
Events of reverse drug effects: Headache [2, 17]: 1
Events of reverse drug effects: Nausea [2, 17]: 8
Events of reverse drug effects: Stomachache [2, 17]: 1
Events of reverse drug effects: Burning heart [2, 18]: 2
Events of reverse drug effects: Stomachache [2, 18]: 1
Events of reverse drug effects: Abd distension [2, 19]: 11
Events of reverse drug effects: Bad appetite [2, 19]: 28
Events of reverse drug effects: Burning heart [2, 19]: 3
Events of reverse drug effects: Constipation [2, 19]: 3
Events of reverse drug effects: Diarrhea [2, 19]: 1
Events of reverse drug effects: Dizziness [2, 19]: 4
Events of reverse drug effects: Headache [2, 19]: 2
Events of reverse drug effects: Insomnia [2, 19]: 5
Events of reverse drug effects: Lethargy [2, 19]: 2
Events of reverse drug effects: Nausea [2, 19]: 16
Events of reverse drug effects: Palpitation [2, 19]: 3
Events of reverse drug effects: Stomatitis [2, 19]: 9
Events of reverse drug effects: Vomiting [2, 19]: 2
Events of reverse drug effects: Abd distension [2, 20]: 4
Events of reverse drug effects: Bad appetite [2, 20]: 5
Events of reverse drug effects: Burning heart [2, 20]: 1
Events of reverse drug effects: Headache [2, 20]: 1
Events of reverse drug effects: Nausea [2, 20]: 7
Events of reverse drug effects: Skin rash [2, 20]: 1
Events of reverse drug effects: Stomatitis [2, 20]: 1
Events of reverse drug effects: Vomiting [2, 20]: 1
Events of reverse drug effects: Abd distension [2, 21]: 1
Events of reverse drug effects: Bad appetite [2, 21]: 1
Events of reverse drug effects: Burning heart [2, 21]: 1
Events of reverse drug effects: Constipation [2, 21]: 1
Events of reverse drug effects: Abd distension [2, 22]: 15
Events of reverse drug effects: Bad appetite [2, 22]: 35
Events of reverse drug effects: Burning heart [2, 22]: 2
Events of reverse drug effects: Constipation [2, 22]: 2
Events of reverse drug effects: Diarrhea [2, 22]: 1
Events of reverse drug effects: Dizziness [2, 22]: 4
Events of reverse drug effects: Headache [2, 22]: 2
Events of reverse drug effects: Insomnia [2, 22]: 5
Events of reverse drug effects: Lethargy [2, 22]: 1
Events of reverse drug effects: Nausea [2, 22]: 25
Events of reverse drug effects: Palpitation [2, 22]: 2
Events of reverse drug effects: Skin rash [2, 22]: 1
Events of reverse drug effects: Stomatitis [2, 22]: 9
Events of reverse drug effects: Vomiting [2, 22]: 3
Events of reverse drug effects: Abd distension [2, 23]: 4
Events of reverse drug effects: Bad appetite [2, 23]: 3
Events of reverse drug effects: Headache [2, 23]: 1
Events of reverse drug effects: Insomnia [2, 23]: 1
Events of reverse drug effects: Nausea [2, 23]: 10
Events of reverse drug effects: Stomatitis [2, 23]: 1
Events of reverse drug effects: Burning heart ([2]; overall group, 12 weeks, column 3): 1
Events of reverse drug effects: Bad appetite [2, 24]: 3
Events of reverse drug effects: Dizziness [2, 24]: 1
Events of reverse drug effects: Headache [2, 24]: 2
Events of reverse drug effects: Insomnia [2, 24]: 1
Events of reverse drug effects: Nausea [2, 24]: 7
Events of reverse drug effects: Vomiting [2, 24]: 2
Events of reverse drug effects: Insomnia [2, 25]: 1
Events of reverse drug effects: Nausea [2, 25]: 2
Events of reverse drug effects: Vomiting [2, 25]: 1
